Laboratory results published in patent US20190233884A1 (University of Southern California, priority 2016, published 2019).

System: patients with refractory metastatic colorectal cancer (mCRC)
Assay: PFS, OS and disease control in the training (evaluation) cohort of refractory mCRC patients receiving TAS-102 (n=52, Japan), by baseline characteristics, SNP genotype and toxicity
Type: in vivo, human
Conditions: for OS HR (95% CI)‡ / PFS HR (95% CI) ‡: multivariable; for OS HR (95% CI)† / PFS HR (95% CI) †: univariate
Method: All patients underwent the treatment in salvage-line setting. […]
(§1) Genomic DNA was extracted from peripheral whole blood in patients of all cohorts using the QIAmp Kit (Qiagen, Valencia, Calif., USA) according to the manufacturer's protocol (www.qiagen.com). The candidate SNPs were genotyped using PCR-based direct DNA sequence analysis by ABI 3100A Capillary Genetic Analyzer and Sequencing Scanner v1.0 (Applied Biosystems). Amplification of extracted DNA was carried out using both forward and reverse primers for each gene polymorphism as shown in Table 1. […] The investigators analyzing SNPs were blinded to the clinical data of the study patients.
The primary endpoint in this study was progression-free survival (PFS), and the secondary endpoints were overall survival (OS) and disease control rate (DCR). PFS was calculated from the date of starting treatment to the first observation of disease progression or death from any cause. If a patient had no disease progression or death, PFS was censored at the date of last follow up. OS was calculated from the date of starting treatment until the date of death from any cause or the date of the last follow-up, at which point OS was censored. The disease control rate (DCR) was defined as the proportion of patients who achieved a stable disease (SD) or […] according to RECISTv1.1. Chi-square test was used to examine the difference in baseline patient characteristics among the three cohorts. Allelic distribution of all SNPs by ethnicity for deviation from Hardy-Weinberg equilibrium and the allelic frequencies of SNPs were tested using the Chi-square tests with one degree of freedom. The associations between candidate SNPs and disease control, and toxicities were examined using contingency tables and Fisher's exact test. The associations of SNPs with PFS and OS were analysed using Kaplan-Meier curves and the log-rank test. Because the true mode of inheritance of candidate SNPs was not established yet, a codominant or dominant genetic model if appropriate was considered.
All patients underwent the treatment in salvage-line setting. […] In all patients, adverse events were graded according to the Common Terminology Criteria for Adverse Events, version 4.0. […]
as §1, with “tested” for “genotyped”, “Biosystems).” for “Biosystems). Amplification of extracted DNA was carried out using both forward and reverse primers for each gene polymorphism as shown in Table 1.”, “data.” for “data of the study patients.”
The primary endpoint in this study was progression-free survival (PFS), and the secondary endpoints were overall survival (OS) and disease control rate (DCR).

Substance: Trifluridine/tipiracil [TAS-102]
- Disease Control Rate PD: 10 (71%)
- Disease Control Rate SD: 4 (29%)
- OS median, months (95% CI) (ATR rs2227928 A/A): 5.7 (2.7, 12.4) months
- PFS median, months (95% CI) (ATR rs2227928 A/A): 2.1 (1.6, 3.4) months
- OS median, months (95% CI) (ATR rs2227928 A/G): 8.1 (4.9, 15.6) months
- PFS median, months (95% CI) (ATR rs2227928 A/G): 2.9 (1.6, 3.4) months
- OS HR (95% CI)‡ (ATR rs2227928 A/G vs A/A): 0.68 (0.26, 1.74)
- PFS HR (95% CI) ‡ (ATR rs2227928 A/G vs A/A): 0.82 (0.41, 1.63)
- OS HR (95% CI)† (ATR rs2227928 A/G vs A/A): 0.71 (0.28, 1.78)
- PFS HR (95% CI) † (ATR rs2227928 A/G vs A/A): 0.75 (0.38, 1.51)
- OS median, months (95% CI) (ATR rs2227928 Any G): 8.3 (6.3, 15.6) months
- PFS median, months (95% CI) (ATR rs2227928 Any G): 3.0 (2.1, 3.7) months
- OS HR (95% CI)‡ (ATR rs2227928 Any G vs A/A): 0.50 (0.20, 1.27)
- PFS HR (95% CI) ‡ (ATR rs2227928 Any G vs A/A): 0.67 (0.35, 1.29)
- OS HR (95% CI)† (ATR rs2227928 Any G vs A/A): 0.57 (0.24, 1.40)
- PFS HR (95% CI) † (ATR rs2227928 Any G vs A/A): 0.64 (0.33, 1.23)
- PFS median, months (95% CI) (ATR rs2227928 G/G): 3.7 (2.1, 6.6) months
- OS HR (95% CI)‡ (ATR rs2227928 G/G vs A/A): 0.18 (0.04, 0.93)
- PFS HR (95% CI) ‡ (ATR rs2227928 G/G vs A/A): 0.43 (0.17, 1.08)
- OS HR (95% CI)† (ATR rs2227928 G/G vs A/A): 0.28 (0.06, 1.31)
- PFS HR (95% CI) † (ATR rs2227928 G/G vs A/A): 0.46 (0.19, 1.10)
- OS median, months (95% CI) (BRCA1 rs16941 Any C): 8.3 (5.3, 14.8+) months
- PFS median, months (95% CI) (BRCA1 rs16941 Any C): 3.0 (2.0, 4.2) months
- OS HR (95% CI)‡ (BRCA1 rs16941 Any C vs T/T): 1.14 (0.46, 2.82)
- PFS HR (95% CI) ‡ (BRCA1 rs16941 Any C vs T/T): 1.04 (0.54, 2.00)
- OS HR (95% CI)† (BRCA1 rs16941 Any C vs T/T): 0.90 (0.38, 2.15)
- PFS HR (95% CI) † (BRCA1 rs16941 Any C vs T/T): 0.87 (0.47, 1.64)
- PFS median, months (95% CI) (BRCA1 rs16941 C/C): 2.7 (2.0, 4.2) months
- OS HR (95% CI)‡ (BRCA1 rs16941 C/C vs T/T): 0.37 (0.05, 3.07)
- PFS HR (95% CI) ‡ (BRCA1 rs16941 C/C vs T/T): 1.66 (0.58, 4.74)
- OS HR (95% CI)† (BRCA1 rs16941 C/C vs T/T): 0.28 (0.04, 2.20)
- PFS HR (95% CI) † (BRCA1 rs16941 C/C vs T/T): 1.06 (0.38, 2.90)
- OS median, months (95% CI) (BRCA1 rs16941 T/C): 8.1 (3.4, 14.8+) months
- PFS median, months (95% CI) (BRCA1 rs16941 T/C): 3.2 (1.8, 4.6) months
- OS HR (95% CI)‡ (BRCA1 rs16941 T/C vs T/T): 1.36 (0.55, 3.40)
- PFS HR (95% CI) ‡ (BRCA1 rs16941 T/C vs T/T): 0.94 (0.47, 1.88)
- OS HR (95% CI)† (BRCA1 rs16941 T/C vs T/T): 1.13 (0.47, 2.74)
- PFS HR (95% CI) † (BRCA1 rs16941 T/C vs T/T): 0.84 (0.43, 1.62)
- OS median, months (95% CI) (BRCA1 rs16941 T/T): 6.3 (4.4, 15.6+) months
- PFS median, months (95% CI) (BRCA1 rs799917 A/A): 2.7 (2.0, 4.2) months
- OS HR (95% CI)‡ (BRCA1 rs799917 A/A vs G/G): 0.37 (0.05, 3.07)
- PFS HR (95% CI) ‡ (BRCA1 rs799917 A/A vs G/G): 1.66 (0.58, 4.74)
- OS HR (95% CI)† (BRCA1 rs799917 A/A vs G/G): 0.28 (0.04, 2.20)
- PFS HR (95% CI) † (BRCA1 rs799917 A/A vs G/G): 1.06 (0.38, 2.90)
- OS median, months (95% CI) (BRCA1 rs799917 Any A): 8.3 (5.3, 14.8+) months
- PFS median, months (95% CI) (BRCA1 rs799917 Any A): 3.0 (2.0, 4.2) months
- OS HR (95% CI)‡ (BRCA1 rs799917 Any A vs G/G): 1.14 (0.46, 2.82)
- PFS HR (95% CI) ‡ (BRCA1 rs799917 Any A vs G/G): 1.04 (0.54, 2.00)
- OS HR (95% CI)† (BRCA1 rs799917 Any A vs G/G): 0.90 (0.38, 2.15)
- PFS HR (95% CI) † (BRCA1 rs799917 Any A vs G/G): 0.87 (0.47, 1.64)
- OS median, months (95% CI) (BRCA1 rs799917 G/A): 8.1 (3.4, 14.8+) months
- PFS median, months (95% CI) (BRCA1 rs799917 G/A): 3.2 (1.8, 4.6) months
- OS HR (95% CI)‡ (BRCA1 rs799917 G/A vs G/G): 1.36 (0.55, 3.40)
- PFS HR (95% CI) ‡ (BRCA1 rs799917 G/A vs G/G): 0.94 (0.47, 1.88)
- OS HR (95% CI)† (BRCA1 rs799917 G/A vs G/G): 1.13 (0.47, 2.74)
- PFS HR (95% CI) † (BRCA1 rs799917 G/A vs G/G): 0.84 (0.43, 1.62)
- OS median, months (95% CI) (BRCA1 rs799917 G/G): 6.3 (4.4, 15.6+) months
- OS median, months (95% CI) (BRCA2 rs144848 A/A): 8.3 (5.4, 12.4) months
- PFS median, months (95% CI) (BRCA2 rs144848 A/A): 2.7 (2.0, 3.4) months
- PFS median, months (95% CI) (BRCA2 rs144848 A/C): 3.5 (1.5, 4.9) months
- OS HR (95% CI)‡ (BRCA2 rs144848 A/C vs A/A): 0.97 (0.34, 2.76)
- PFS HR (95% CI) ‡ (BRCA2 rs144848 A/C vs A/A): 0.82 (0.39, 1.72)
- OS HR (95% CI)† (BRCA2 rs144848 A/C vs A/A): 0.91 (0.33, 2.57)
- PFS HR (95% CI) † (BRCA2 rs144848 A/C vs A/A): 0.76 (0.37, 1.56)
- OS median, months (95% CI) (BRCA2 rs144848 Any C): 8.1 (2.8, 15.6+) months
- PFS median, months (95% CI) (BRCA2 rs144848 Any C): 3.3 (1.6, 4.6) months
- OS HR (95% CI)‡ (BRCA2 rs144848 Any C vs A/A): 1.14 (0.46, 2.79)
- PFS HR (95% CI) ‡ (BRCA2 rs144848 Any C vs A/A): 0.92 (0.48, 1.78)
- OS HR (95% CI)† (BRCA2 rs144848 Any C vs A/A): 1.07 (0.44, 2.58)
- PFS HR (95% CI) † (BRCA2 rs144848 Any C vs A/A): 0.82 (0.43, 1.54)
- OS median, months (95% CI) (BRCA2 rs144848 C/C): 8.1 (2.7, 8.1+) months
- PFS median, months (95% CI) (BRCA2 rs144848 C/C): 2.7 (0.9, 6.0+) months
- OS HR (95% CI)‡ (BRCA2 rs144848 C/C vs A/A): 1.62 (0.44, 6.02)
- PFS HR (95% CI) ‡ (BRCA2 rs144848 C/C vs A/A): 1.28 (0.47, 3.50)
- OS HR (95% CI)† (BRCA2 rs144848 C/C vs A/A): 1.48 (0.41, 5.34)
- PFS HR (95% CI) † (BRCA2 rs144848 C/C vs A/A): 0.99 (0.38, 2.59)
- OS median, months (95% CI) (CHEK2 rs22236142 Any C): 8.3 (5.4, 15.6+) months
- PFS median, months (95% CI) (CHEK2 rs22236142 Any C): 2.6 (2.1, 3.4) months
- OS HR (95% CI)‡ (CHEK2 rs22236142 Any C vs G/G): 0.66 (0.26, 1.65)
- PFS HR (95% CI) ‡ (CHEK2 rs22236142 Any C vs G/G): 1.15 (0.59, 2.22)
- OS HR (95% CI)† (CHEK2 rs22236142 Any C vs G/G): 0.84 (0.35, 2.00)
- PFS HR (95% CI) † (CHEK2 rs22236142 Any C vs G/G): 1.33 (0.70, 2.50)
- OS median, months (95% CI) (CHEK2 rs22236142 C/C): 7.5 (3.3, 15.6+) months
- PFS median, months (95% CI) (CHEK2 rs22236142 C/C): 2.7 (1.6, 4.4) months
- OS HR (95% CI)‡ (CHEK2 rs22236142 C/C vs G/G): 0.88 (0.28, 2.77)
- PFS HR (95% CI) ‡ (CHEK2 rs22236142 C/C vs G/G): 1.18 (0.50, 2.78)
- OS HR (95% CI)† (CHEK2 rs22236142 C/C vs G/G): 0.93 (0.31, 2.81)
- PFS HR (95% CI) † (CHEK2 rs22236142 C/C vs G/G): 1.15 (0.49, 2.74)
- OS median, months (95% CI) (CHEK2 rs22236142 G/C): 8.3 (4.9, 12.4+) months
- PFS median, months (95% CI) (CHEK2 rs22236142 G/C): 2.5 (1.8, 3.5) months
